From patent US12503455B2, “Nucleic acid-binding photoprobes and uses thereof” (Arrakis Therapeutics, Inc., priority 2017, dated 2025)
Where “and” joins values, the source holds several entries; their conditions need not be identical. Identical values can stand only once. Entries after “also recorded” stand apart in the source; their conditions may differ.

How the values were obtained:
[1] = system: Aptamer 21-E; experiment: SHAPE-MaP on Aptamer 21-E with and without ligand; details: suggesting weak binding
Protocol: The SHAPE-MaP approach exploits conditions that cause reverse transcriptase to misread SHAPE-modified nucleotides and incorporate a nucleotide non-complementary to the original sequence into the newly synthesized cDNA. The positions and relative frequencies of SHAPE adducts are recorded as mutations in the cDNA primary sequence. In a SHAPE-MaP experiment, the RNA is treated with a SHAPE reagent or treated with solvent only, and the RNA is […]. RNA from each experimental condition is reverse-transcribed, and the resulting cDNAs are then sequenced. […]
SHAPE-MaP can be performed and analyzed according to detailed published methods (Martin et al., RNA 2012; 18:77-87; McGuinness et al., J. Am. Chem. Soc. 2012; 134:6617-6624; Siegfried et al., Nature Methods 2014; 11:959-965; Lavender et al., PLoS Comput. Biol. 2015; 11(5)e1004230; McGuinness et al., Proc. Natl. Acad. Sci. USA 2015; 112:2425-2430). The SHAPE-MaP sequence data can be analyzed using ShapeFinder (Vasa et al., RNA 2008; 14:1979-1990) or ShapeMapper (Siegfried et al., Nature Methods 2014; 11:959-965) or other software. […]
For all SHAPEware analysis, reads were adapter-trimmed aligned as previously described (https://bitbucket.org/arrakistx/shapeware/src) using Trimmomatic (http://dx.doi.org/10.1093/bioinformatics/btu170) and bwa-mem (https://arxiv.org/abs/1303.3997), respectively. […]

[2] = target: Aptamer 21; experiment: Surface plasmon resonance (SPR) binding to Aptamer 21; details: listed as ARK-139
Source text: Surface plasmon resonance (SPR) may be used to screen ligands and hook and click constructs for binding to a target RNA of interest. SPR is especially useful for monitoring biomolecular interactions in real time. Typically, target species and unrelated control are immobilized to a sensor chip, then analytes (compounds/fragments) are flowed over the surface. Binding of the compound to target species results in increase of SPR signal (association phase). Washing away bound compound with buffer results in a decrease of SPR signal (dissociation phase). Fitting of sensorgrams recorded at different compound concentrations is performed to an appropriate interaction model. The method allows extraction of kinetic parameters (ka, kd→KD). Requirements/limitations include that the ka/kd values be in reasonable ranges; and the target size must not be too large (<100 kDa). It is an excellent method to screen fragments and profile or validate hits. BC4000 may be used for primary screening (up to 4,000 data pts/week). Biacore T200 is suitable for hit profiling and validation.
In the PEARL-seq context, SPR allows monitoring binding of “hooks” to DNA/RNA aptamers. The target species is immobilized to sensor chip, analytes (i.e. hooks) are flowed over surface (association phase), DNA/RNA aptamer is flowed over surface (plateau phase), competitor compound is washed over surface (dissociation phase), thus yielding binding data.
Experiments were performed on a MASS-2 (Sierra Sensors) at 25° C. A high capacity amine chip was equilibrated with PBS. The chip was conditioned with alternating injections of 10 mM HCl and 10 mM NaOH in 1 M NaCl. The carboxymethylated dextran of the surface of the amine chip was activated for 7 minutes at a flow rate of 10 μL/min using a 1:1 volume ratio of 0.4 M 1-ethyl-3-(3-dimethylaminopropyl) carbodiimide (Sierra) and 0.1 M N-hydroxysuccinimide (Sierra). Neutravidin (70 μg/mL, Thermofisher) was injected over the activated surface for 10 minutes at a flow rate of 10 μl/min. Excess activated groups were blocked by an injection of 1 M ethanolamine, pH 8.5 (Sierra) for 7 minutes at a flow rate of 10 μl/min. A final injection of 10 mM NaOH in 1 M NaCl for 7 minutes at 10 μl/min was used to remove any unbound material to the chip. The immobilization reaction typically yielded approximately 12,000 resonance units (RU) of neutravidin. At least one spot in a channel was not injected with RNA and was used as a background control. Unrelated RNA was also used as a background control.
A 1 μM sample of biotin-aptamer 21 was prepared in RNAse free water, heated to 95° C. for 3 minutes, cooled on ice for 4 minutes, diluted with an equal volume 2× folding buffer (40 mM Tris-HCl, pH 8.0, 6 mM MgCl2, 200 mM KCl), and incubated at 37° C. for 30 minutes. The final concentration of RNA was 0.5 μM.
The MASS-2 was primed 2 times with 20 mM Tris-HCl, pH 8.0, 3 mM MgCl2, 100 mM KCl (Capture Buffer). RNA was injected over the neutravidin surface for 7 minutes at a flow rate of 10 μl/min. Capture levels typically reached approximately 3500-4500 of resonance units of aptamer 21.
Compounds were diluted 2-fold in 100% DMSO at a starting concentration of 500 μM.
The MASS-2 was primed 2 times with 20 mM Tris-HCl, pH 8.0, 3 mM MgCl2, 100 mM KCl, 1% DMSO (running buffer). Prior to testing compounds 3 injections of running buffer were used to equilibrate the sensor surface. […]

Kd ([2]; binding to Aptamer 21, read-out: calculated KD by SPR): 0.568 µM and 0.42 µM | binding to Aptamer 21 by SPR [2]: binds; also recorded: SPR-active
Structure (SMILES): COC(=O)C1=C(COCc2cn(CCOCCOCCO)nn2)NC(c2ccncc2)=NC1c1ccc(F)cc1Cl (racemic) [I-1]
alteration in SHAPE reactivity of Aptamer 21-E in presence of ligand [1]: almost no alteration
